# From ChEMBL document CHEMBL1146619, “The design and synthesis of guanosine compounds with in vitro activity against the colon cancer cell line SW480: non-taxane derived mimics of taxol?” (Bioorg Med Chem Lett, 2003)
# System: SW480
# Experiment: In vitro anti-cancer activity against the colon cancer cell line SW480 was determined
# Format: functional, cell-based
# Conditions: Homo sapiens
row,IC50,SMILES
1,222 µM,CC(C)C(=O)Nc1nc(O)c2ncn(C3OC(COC(=O)[C@@H]4OC(C)(C)N(C(=O)c5ccccc5)[C@H]4c4ccccc4)C4OC(C)(C)OC43)c2n1 (stereo not given in full)
2,152 µM,COc1ccc(C(Nc2nc(O)c3ncn(C4OC(COC(=O)[C@@H]5OC(C)(C)N(C(=O)c6ccccc6)[C@H]5c5ccccc5)C5OC(C)(C)OC54)c3n2)(c2ccccc2)c2ccccc2)cc1 (stereo not given in full)
3,0.312 µM,CC(=O)O[C@H]1C(=O)[C@@]2(C)[C@H]([C@H](OC(=O)c3ccccc3)[C@]3(O)C[C@H](OC(=O)[C@H](O)[C@@H](NC(=O)c4ccccc4)c4ccccc4)C(C)=C1C3(C)C)[C@]1(OC(C)=O)CO[C@@H]1C[C@@H]2O [PACLITAXEL]
4,19.9 µM,COc1ccc(C(Nc2nc(O)c3ncn(C4OC(COC(=O)[C@@H]5OC(C)(C)N(C(C)=O)[C@H]5c5ccccc5)C5OC(C)(C)OC54)c3n2)(c2ccccc2)c2ccccc2)cc1 (stereo not given in full)
5,192 µM,CC(=O)N1[C@@H](c2ccccc2)[C@H](C(=O)OCC2OC(n3cnc4c(O)nc(NC(=O)C(C)C)nc43)C3OC(C)(C)OC23)OC1(C)C (stereo not given in full)
